The values that follow are results of earlier work, collected in patent US20040147441A1, “Methods and reagents for preventing bacteremias” (priority 2002, published 2004).

Values after ≈ are worked out from the molar mass of the structure shown.

Series [1] deals with E. faecalis (strains K-99-34, K-00-184, and K-00-221). The note with it: Rhee 2002.
Series [2] relates to C. Difficile. The conditions noted are these: Dong et al. 1987.
Series [3] relates to E. facium (multidrug resistant). The conditions noted are these: Mobarakai et al. 1994.
In series [4] the test system is S. aureus Strain Smith. The note with it: Mueller-Hinton Broth.
Series [5] relates to S. aureus (methicillin susceptible). The note with it: J. Antimicrob. Chemother. 48: 283-286, 2001.
The subject of series [6] is S. pneumoniae (penicillin resistant).
In series [7] the test system is S. aureus (methicillin resistant).
The subject of series [8] is S. pneumoniae (penicillin susceptible).
Series [9] relates to E. facium (vancomycin resistant).
Series [10] relates to S. pyrogens.
The subject of series [11] is E. faecalis (vancomycin susceptible).
Series [12] deals with E. facium (vancomycin susceptible).

Turning to `CC(C)C[C@@H]1NC(=O)[C@@H]2CCCN2C1=O` [Cyclo(leu-pro), cyclo-(Leu-Pro)], the “MIC (minimal growth inhibitory concentration)” value in [1] is recorded as “MIC = 12.5 μg/ml”.
For `CCCCCCCCCC(=O)N[C@@H](Cc1c[nH]c2ccccc12)C(=O)N[C@H](CC(N)=O)C(=O)N[C@@H](CC(=O)O)C(=O)N[C@@H]1C(=O)NCC(=O)N[C@@H](CCCN)C(=O)N[C@@H](CC(=O)O)C(=O)N[C@H](C)C(=O)N[C@@H](CC(=O)O)C(=O)NCC(=O)N[C@H](CO)C(=O)N[C@@H]([C@H](C)CC(=O)O)C(=O)N[C@@H](CC(=O)c2ccccc2N)C(=O)O[C@@H]1C` [daptomycin], the entries for the “MIC (minimal growth inhibitory concentration)” value in series [2] and in series [3] were “MIC = 16.0 μg/ml” and “MIC = 2.0-4.0 μg/ml”, respectively. The “MIC (no CaCl2)” value in [4] is 1 µg/mL (≈ 0.617 µM). For the same compound, in series [4], the “MIC (with CaCl2)” value is 0.5 µg/mL (≈ 0.309 µM).
As for `CN[C@H](CC(C)C)C(=O)N[C@H]1C(=O)N[C@@H](CC(N)=O)C(=O)N[C@H]2C(=O)N[C@H]3C(=O)N[C@H](C(=O)N[C@H](C(=O)O)c4cc(O)cc(O)c4-c4cc3ccc4O)[C@H](O[C@H]3C[C@](C)(N)[C@@H](O)[C@H](C)O3)c3ccc(c(Cl)c3)Oc3cc2cc(c3O[C@@H]2O[C@H](CO)[C@@H](O)[C@H](O)[C@H]2O[C@H]2C[C@](C)(NCc3ccc(-c4ccc(Cl)cc4)cc3)[C@@H](O)[C@H](C)O2)Oc2ccc(cc2Cl)[C@H]1O` [oritavancin], the “MBC (minimal bactericidal concentration)” value in [5] was 4.0 to 8.0 µg/mL; in [6] it was “MIC = <0.03; MBC = <0.03 μg/ml”; in series [7], 8.0 to 16.0 µg/mL; in [8], “MIC = <0.03; MBC = <0.03 μg/ml”; in [9], 4.0 to 8.0 µg/mL; in series [10] it was 0.5 to 1.0 µg/mL. Further, the “MBC (minimal bactericidal concentration)” value in series [11] and in [12] was 1.0 to 2.0 µg/mL each time. Moreover, the “MIC (minimal growth inhibitory concentration)” value in series [5] is 2.0 to 4.0 µg/mL; in series [6] it was “MIC = <0.03; MBC = <0.03 μg/ml”; in series [7] it was 2.0 to 4.0 µg/mL; in series [8] it was “MIC = <0.03; MBC = <0.03 μg/ml”; in series [9] it was 1.0 to 2.0 µg/mL; in series [10] it was 0.12 to 0.25 µg/mL. Besides, the results for the “MIC (minimal growth inhibitory concentration)” value in series [11] and in [12] were 0.5 to 1.0 µg/mL and 0.12 to 0.25 µg/mL, respectively.
As to Aspartocin, in series [4], the “MIC (no CaCl2)” value is 2 µg/mL and the “MIC (with CaCl2)” value was 1 µg/mL.
Take Laspartomycin: in [4], the “MIC (no CaCl2)” value is 16 µg/mL and the “MIC (with CaCl2)” value is 2 µg/mL.
As to Zaomycin, in series [4], the “MIC (no CaCl2)” value is 10 µg/mL and the “MIC (with CaCl2)” value is 1 µg/mL.
Consider teicoplanin, for which the “MBC (minimal bactericidal concentration)” value in series [5] was 2.0 to 8.0 µg/mL; in series [6], “MIC = <0.03; MBC = <0.03 μg/ml”; in series [7] it was 8.0 to 16.0 µg/mL; in series [8] it was “MIC = <0.03; MBC = <0.03 μg/ml”; in [9] it was “MIC = >16.0; MBC = >16.0 μg/ml”; in series [10] it was 0.06 to 0.25 µg/mL. Moreover, the “MBC (minimal bactericidal concentration)” value in series [11] and in series [12] was 2.0 to 4.0 µg/mL each time. The “MIC (minimal growth inhibitory concentration)” value is 0.5 to 4.0 µg/mL in series [5]; “MIC = <0.03; MBC = <0.03 μg/ml” in series [6]; “MIC 8.0-1,024 μg/ml” in series [3]; 2.0 to 4.0 µg/mL in [7]; “MIC = <0.03; MBC = <0.03 μg/ml” in series [8]; “MIC = >16.0; MBC = >16.0 μg/ml” in series [9]. Moreover, the “MIC (minimal growth inhibitory concentration)” value in series [10] is 0.03 to 0.06 µg/mL; in series [11] it was over 0.25 µg/mL; in series [12], 0.25 to 0.5 µg/mL.
